Measured values as given in paper PMC4633474, “Kinetic properties and stability of glucose dehydrogenase from Bacillus amyloliquefaciens SB5 and its potential for cofactor regeneration” (AMB Express, 2015).

Molecular target: T1, GluDH-BS (Bacillus subtilis, UniProt P12310)
T1 construct: gene gdh; full length, plasmid pHGBS, overexpressed in B. subtilis 168 (strain BS), crude cell-free extract
Assay: NADPH formation at […] nm, crude extract
Format: biochemical
Details: glucose, CPB buffer, 37 °C; turnover only

T1 sequence (P12310 whole entry): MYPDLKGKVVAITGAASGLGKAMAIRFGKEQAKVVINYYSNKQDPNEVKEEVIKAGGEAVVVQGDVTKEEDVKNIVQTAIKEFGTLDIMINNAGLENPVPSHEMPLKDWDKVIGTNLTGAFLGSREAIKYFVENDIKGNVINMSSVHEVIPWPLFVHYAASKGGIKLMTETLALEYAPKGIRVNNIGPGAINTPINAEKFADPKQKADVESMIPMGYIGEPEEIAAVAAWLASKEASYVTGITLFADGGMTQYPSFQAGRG

Compound: NC(=O)c1ccc[n+]([C@@H]2O[C@H](COP(=O)(O)OP(=O)(O)OC[C@H]3O[C@@H](n4cnc5c(N)ncnc54)[C@H](OP(=O)(O)O)[C@@H]3O)[C@@H](O)[C@H]2O)c1 [NADP^+]
- NADPH formation at 340 nm, crude extract: crude GluDH-BS (closed circle) and GluDH-BA (open circle) when using NADP^+ as a cofactor
